Numbered stars: 1 amine (or outer) side, 2 acyl side, 3 side chain; on linkers, the order of the positions; unused ones are H or OH. Bridge positions count the residues as written; N and C are the ends. Square brackets hold non-standard residues; d marks the D form. Peptide text beside a SMILES is read from it. * marks the point of attachment. hPhe(3,5-F2-4-CF3) = N[C@@H](CCc1cc(F)c(C(F)(F)F)c(F)c1)C(=O)O; hPhe(3-Cl-4-CF3) = N[C@@H](CCc1ccc(C(F)(F)F)c(Cl)c1)C(=O)O; NMePhe(4-CF3) = CN[C@@H](Cc1ccc(C(F)(F)F)cc1)C(=O)O; Thiomorpholino(1,1-dioxo) = O=S1(=O)CCN(*)CC1; X126 = O=C([C@H](Cc1cc(F)cc(I)c1)N[*:1])[*:2]; NMeAbu(4,4,4-F3) = CN[C@@H](CC(F)(F)F)C(=O)O; NMePhe(4-Me) = CN[C@@H](Cc1ccc(C)cc1)C(=O)O; NMePhe(4-F) = CN[C@@H](Cc1ccc(F)cc1)C(=O)O; NMeGly(cPent) = CN[C@H](C(=O)O)C1CCCC1; Phe(3-I) = N[C@@H](Cc1cccc(I)c1)C(=O)O; Pro(4,4-F2) = O=C(O)[C@@H]1CC(F)(F)CN1; NMeY = CN[C@@H](Cc1ccc(O)cc1)C(=O)O; NMeCha = CN[C@@H](CC1CCCCC1)C(=O)O; NMehLeu = CN[C@@H](CCC(C)C)C(=O)O; NMeChg = CN[C@H](C(=O)O)C1CCCCC1; NMeD = CN[C@@H](CC(=O)O)C(=O)O; NMeL = CN[C@@H](CC(C)C)C(=O)O; NMeNva = CCC[C@H](NC)C(=O)O; NMeV = CN[C@H](C(=O)O)C(C)C; d(β3hA) = C[C@@H](N)CC(=O)O; NMeAbu = CC[C@H](NC)C(=O)O; Morpholide = C1CN(*)CCO1; NMeA = CN[C@@H](C)C(=O)O; NMeAib = CNC(C)(C)C(=O)O; Nle = CCCC[C@H](N)C(=O)O; Piperidide = C1CCN(*)CC1; Pra = C#CC[C@H](N)C(=O)O; Pyrrolidide = C1CCN(*)C1; Ac5c = NC1(C(=O)O)CCCC1; Aze = O=C(O)[C@@H]1CCN1; Sar = CNCC(=O)O
test system: Human pancreatic cancer cell line AsPC-1 (G12D mutation Kras); assay: AsPC-1 cell growth inhibition (AsPC-1 CGI); format: cell-based; details: read-out: AsPC-1 cell growth inhibition, 50% growth inhibitory concentration (IC50 value); 96 hours, CellTiter-Glo, values classified in ranges
Description: Test compounds were serially dilated with dimethyl sulfoxide, and 200 nL was then dispensed to a U-bottom 96-well plate using Labcyte Echo. […] The cell suspension was dispensed to a. plate containing a test compound at 100 μL per well and incubated at 37° C. in a 5% carbon dioxide gas incubator. 96 hours later, 80 μL of CellTiter-Glo (Promega) was added to each well and fluorescence was measured.

Cc1ccc(C[C@H]2C(=O)N(C)CC(=O)N[C@@H](CCc3ccc(C(F)(F)F)c(Cl)c3)C(=O)N3CCC[C@H]3C(=O)NC3(CCCC3)C(=O)N(C)[C@@H](C3CCCC3)C(=O)N[C@H](C)CC(=O)N(C)[C@@H](CC(C)C)C(=O)N[C@@H](C)C(=O)N(C)[C@@H](C)C(=O)N3CC[C@H]3C(=O)N2C)cc1 [Compound 1225] (cyclo(A[NMeA][Aze][NMePhe(4-Me)][Sar][hPhe(3-Cl-4-CF3)]P[Ac5c][NMeGly(cPent)][d(β3hA)][NMeL])) and CC[C@H](C)[C@@H]1NC(=O)[C@H](CC(C)C)N(C)C(=O)C[C@@H](C)NC(=O)[C@H](C)N(C)C(=O)C2(CCCC2)NC(=O)[C@@H]2CCCN2C(=O)[C@H](CCc2ccc(C(F)(F)F)c(Cl)c2)NC(=O)CN(C)C(=O)[C@H](Cc2ccc(C)cc2)N(C)C(=O)[C@@H]2CCN2C(=O)[C@H](C)N(C)C1=O [Compound 1239] (cyclo([Ac5c][NMeA][d(β3hA)][NMeL]I[NMeA][Aze][NMePhe(4-Me)][Sar][hPhe(3-Cl-4-CF3)]P)) cannot be ordered by IC50: over 500 nM for the first, over 500 nM for the second.

CCCC[C@@H]1NC(=O)[C@H](Cc2cc(F)cc(I)c2)NC(=O)CN(C)C(=O)[C@H](Cc2ccc(OC)cc2)N(C)C(=O)[C@@H]2CCN2C(=O)[C@H](C)N(C)C(=O)[C@H]([C@@H](C)CC)NC(=O)[C@H](CC)N(C)C(=O)C[C@@H](C(=O)N2CCCCC2)N(C)C(=O)[C@H](CC(C)C)NC(=O)C(C)(C)N(C)C1=O [Compound 1226] ([NMeAbu]I[NMeA][Aze][NMeY](Me)[Sar][X126][Nle][NMeAib]L[NMeD]-Piperidide; lactam N-11) and C#CC[C@@H]1NC(=O)[C@H](Cc2cccc(I)c2)NC(=O)CN(C)C(=O)[C@H](Cc2ccc(F)cc2)N(C)C(=O)[C@@H]2CCN2C(=O)[C@H](C)N(C)C(=O)[C@H]([C@@H](C)CC)NC(=O)[C@H](CC(C)C)N(C)C(=O)C[C@@H](C(=O)N2CCCCC2)N(C)C(=O)[C@H](CC(C)C)NC(=O)C(C)(C)N(C)C1=O [Compound 1230] ([NMeL]I[NMeA][Aze][NMePhe(4-F)][Sar][Phe(3-I)][Pra][NMeAib]L[NMeD]-Piperidide; lactam N-11) cannot be ordered by IC50: over 500 nM for the first, over 500 nM for the second.

First: CCC[C@H]1C(=O)N[C@@H]([C@@H](C)CC)C(=O)N(C)CC(=O)N(C)CC(=O)N(C)[C@@H](CC2CCCCC2)C(=O)N(C)CC(=O)N[C@@H](CCc2ccc(C(F)(F)F)c(Cl)c2)C(=O)N2CC(F)(F)C[C@H]2C(=O)NC2(CCCC2)C(=O)N(C)[C@@H](C2CCCCC2)C(=O)N(C)[C@H](C(=O)N2CCCC2)CC(=O)N1C [Compound 1232] ([NMeNva]I[Sar][Sar][NMeCha][Sar][hPhe(3-Cl-4-CF3)][Pro(4,4-F2)][Ac5c][NMeChg][NMeD]-Pyrrolidide; lactam N-11)
Second: CC[C@H](C)[C@@H]1NC(=O)[C@H](CC(C)C)N(C)C(=O)C[C@@H](C(=O)N2CCCCC2)N(C)C(=O)[C@H](C(C)C)N(C)C(=O)C2(CCCC2)NC(=O)[C@H](C)N(C)C(=O)[C@H](CCc2ccc(C(F)(F)F)c(Cl)c2)NC(=O)CN(C)C(=O)[C@H](CC2CCCCC2)N(C)C(=O)[C@@H]2CCN2C(=O)[C@H](C)N(C)C1=O [Compound 1243] ([NMeL]I[NMeA][Aze][NMeCha][Sar][hPhe(3-Cl-4-CF3)][NMeA][Ac5c][NMeV][NMeD]-Piperidide; lactam N-11)
The IC50 of the first is lower: at most 20 nM for the first, over 500 nM for the second.

Going from CC[C@H](C)[C@@H]1NC(=O)[C@H](CCC(C)C)N(C)C(=O)C[C@@H](C(=O)N2CCOCC2)N(C)C(=O)[C@H](C2CCCC2)N(C)C(=O)C2(CCCC2)NC(=O)[C@@H]2CCCN2C(=O)[C@H](CCc2ccc(C(F)(F)F)c(Cl)c2)NC(=O)CN(C)C(=O)[C@H](C2CCCC2)N(C)C(=O)[C@@H]2CCN2C(=O)[C@H](C)N(C)C1=O [Compound 1237] ([NMehLeu]I[NMeA][Aze][NMeGly(cPent)][Sar][hPhe(3-Cl-4-CF3)]P[Ac5c][NMeGly(cPent)][NMeD]-Morpholide; lactam N-11) to CC[C@H](C)[C@@H]1NC(=O)[C@H](CC(C)C)N(C)C(=O)C[C@@H](C(=O)N2CCS(=O)(=O)CC2)N(C)C(=O)[C@H](C(C)C)N(C)C(=O)C2(CCCC2)NC(=O)[C@@H]2CCCN2C(=O)[C@H](CCc2ccc(C(F)(F)F)c(Cl)c2)NC(=O)CN(C)C(=O)[C@H](CC2CCCCC2)N(C)C(=O)[C@@H]2CCN2C(=O)[C@H](C)N(C)C1=O [Compound 1238] ([NMeL]I[NMeA][Aze][NMeCha][Sar][hPhe(3-Cl-4-CF3)]P[Ac5c][NMeV][NMeD]-{Thiomorpholino(1,1-dioxo)}; lactam N-11), the IC50 rises from at most 20 nM to over 500 nM.

Work on CC[C@H](C)[C@@H]1NC(=O)[C@H](CC(F)(F)F)N(C)C(=O)C[C@@H](C(=O)N2CCCC2)N(C)C(=O)[C@H](C2CCCCC2)N(C)C(=O)C2(CCCC2)NC(=O)[C@@H]2CCCN2C(=O)[C@H](CCc2cc(F)c(C(F)(F)F)c(F)c2)NC(=O)CN(C)C(=O)[C@H](Cc2ccc(C(F)(F)F)cc2)N(C)C(=O)CN(C)C(=O)CN(C)C1=O [Compound 1244] ([NMeAbu(4,4,4-F3)]I[Sar][Sar][NMePhe(4-CF3)][Sar][hPhe(3,5-F2-4-CF3)]P[Ac5c][NMeChg][NMeD]-Pyrrolidide; lactam N-11) yielded an IC50 of at most 20 nM.

— patent publication US20240148821A1, “PHARMACEUTICAL USE OF CYCLIC PEPTIDE COMPOUND” (CHUGAI SEIYAKU KABUSHIKI KAISHA, priority 2021, published 2024)
